Marks after values point to notes of the source that are not given here.

This note sets out measurements from patent US20140303092A1 (CHIMERIX, INC., priority 2011, published 2014).

The conditions of series [1]: rat, in vivo. An excerpt:
AME of ^14C-HDP-CDV Following Oral Administration to Bile Duct-Intact and Bile Duct-Cannulated Rats. In order to more fully define the CYP enzymes involved in HDP-CDV elimination, the disposition and metabolism of ^14C-radiolabeled-HDP-CDV was studied in bile-duct cannulated rats either with or without pretreatment with the broad-spectrum CYP inhibitor aminobenzotriazole (ABT). This study has completed the in-life phase and sample analysis is ongoing.

The nature of series [2]: Study HDP-CDV-350: safety, adverse events and disposition. It counts as in vivo, human (allogeneic HCT recipients). Here is the method:
Subjects underwent extensive safety monitoring, including routine safety laboratory assessments, physical examination, and vital sign measurements at regular intervals. In addition, subjects were monitored for viral DNA burden in plasma (DNAemia) and other affected compartments (e.g., urine, stool, CSF, etc.). Assessments were performed weekly for the first month, every 1 or 2 weeks for the next 2 months, and monthly thereafter for as long as treatment was continued. Subjects were monitored for adverse events (AEs) and for selected concomitant medication throughout the entire study, including the 1 month posttreatment follow-up period.
Given that subjects had to have a serious or life-threatening disease and/or to have failed other available treatment options in order to qualify for this study, there was an expected high frequency of AEs in the study population overall. With the exception of diarrhea, with or without associated GI signs and symptoms, the vast majority of AEs were attributed to the underlying conditions of the subjects and not to HDP-CDV administration.

The conditions of series [3]: human, in vivo. An excerpt: ESRD patients not on dialysis have no ability to eliminate the metabolite CDV. As such, specific labeling for ESRD patients not currently on dialysis may not be sought. Furthermore, such subjects are/may be excluded from future studies with HDP-CDV.
Setting [4] is: 16 subjects, 100 mg BIW adults or 2 mg/kg BIW pediatrics.

Consider `CCCCCCCCCCCCCCCCOCCCOP(=O)(O)COC(CO)Cn1ccc(N)nc1=O` (stereo not shown) [HDP-CDV], for which, in series [1], the “administered radioactivity excreted in bile” value is given as around 8%, the “administered radioactivity excreted in feces” value is around 57%, the “administered radioactivity excreted in urine” value is on record as “approximately 30%” and the “radioactivity excreted in bile” value stood at 3%. In series [1], the “radioactivity excreted in feces” value is recorded as 55%, the “radioactivity excreted in urine” value was 28% and the recovery of radioactivity is recorded as at least 90%. Moreover, in series [2] (setting [4]), the “Reason for Premature Study Discontinuation: Death” value is 7 (44%) and the “Reasons for Premature HDP-CDV Treatment Discontinuation: Death” value was 4 (25%). Besides, the “Reasons for Premature HDP-CDV Treatment Discontinuation: Other” value in series [2] (16 subjects, both completed the maximum 6 months treatment without resolution of CMV infection) is reported as 2 (13%)^i. Further, in series [2] (human, in vivo), the “Treatment-related Adverse Events: Colitis” value was 1 (6%) No. of Subjects (%), the “Treatment-related Adverse Events: Decreased appetite” value is on record as 1 (6%) No. of Subjects (%), the “Treatment-related Adverse Events: Diarrhea” value is reported as 12 (75%) No. of Subjects (%) and the “Treatment-related Adverse Events: Flatulence” value was 1 (6%) No. of Subjects (%). In series [2] (human, in vivo), the “Treatment-related Adverse Events: Liver function tests abnormal” value is 3 (19%) No. of Subjects (%), the “Treatment-related Adverse Events: Nausea” value is 2 (13%) No. of Subjects (%) and the “Treatment-related Adverse Events: Neutropenia” value is 1 (6%) No. of Subjects (%). In series [2] (in vivo), the tolerability result was “generally well-tolerated”. Also, the “need for dosage adjustment in renal impairment” value in series [3] is on record as “no adjustment of HDP-CDV dosage is required”.
